In patent publication US20220106304A1, “Transcription Factor BRN2 Inhibitory Compounds as Therapeutics and Methods for Their Use” (The University of British Columbia, priority 2018, published 2022):

Assay: Liver microsome metabolic stability, HLM
Assay type: in vitro ADME
Settings: HLM (first of two values), 1 μM compound, 0.25 mg/mL protein
Description: Potassium phosphate buffer (Kphos) was prepared by adding 0.647 g potassium phosphate monobasic (KH2PO4) and 3.527 g potassium phosphate dibasic ([…]) to 400 mL of Milli-Q water. pH of the buffer was adjusted to 7.4 and volume was made up to 500 mL.
Microsomes (20 mg/mL) were diluted in KH2PO4 buffer to prepare a concentration of 0.357 mg/mL.
Stock solutions of BRN2 inhibitors were prepared in DMSO at a concentration of 1 mM
A stock solution of 3.33 mM NADPH (3.33×) was prepared by dissolving appropriate amount of NADPH in KH2PO4 buffer.
Total Incubation volume: 100 μL
Compound concentration: 1 μM
Protein Concentration: 0.25 mg/mL
An 1120 μL aliquot of Kphos buffer (50 mM, pH 7.4) containing liver microsomes (0.357 mg/mL) were added to individual 2 mL tubes (final concentration 0.25 mg/mL). Test compounds (1 mM) and positive controls were directly spiked into respective tubes to prepare a concentration of 1.428 μM (final concentration 1 μM). From the above mix, 70 μL was added to individual wells of 96 well reaction plates and pre-incubated in a 37° C. water bath for 5 min. All the reactions were initiated by adding 30 μL of 3.33 mM NADPH (final concentration 1 mM). Reactions without NADPH and buffer controls (minus NADPH) at 0 min and 60 min were also incubated to rule out non-NADPH metabolism or chemical instability in the incubation buffer. All reactions were terminated using 100 μL of ice-cold acetonitrile containing internal standard at 0, 5, 15, 30 and 60 min. The plates were centrifuged at 4000 RPM for 15 min and 100 μL aliquots were submitted for analysis by LC-MS/MS.
Samples were monitored for parent compounds disappearance in MRM mode using LC-MS/MS.
The percent remaining of test compounds and positive control in each sample was determined by considering peak area ratio in the 0 minute sample as 100%. The Half-life of compounds in microsomes is calculated by formula:
Half-life (t½) (min)=0.693/k, where k is gradient of line determined from plot of peak area ratio (compound peak area/internal standard peak area) against time.
In vitro intrinsic clearance (CL'int) (units in mL/min/kg) was calculated using the formula.
[formula] • For liver microsomes, scaling factor used was 45 mg microsomal protein per gm liver. • Indicates liver weight (gm) which varies species wise. For mice the liver weights are 90 gm.
Where data is not available “na” is inserted.

FC(F)(F)c1ccc2cc(-c3csc(-c4ccco4)n3)oc2c1 [VPC-18-51, 2-(Furan-2-yl)-4-(6-(trifluoromethyl)benzofuran-2-yl)thiazole]
Met Stab % (60 mins HLM/MLM) (percent remaining at 60 min, 1 mM NADPH): 42%
half-life at 1 µM (human, liver microsomes, pH 7.4, read-out: T1/2 in (mins HLM/MLM)): 45 min
